Where a name gives a salt, the structure may show the parent alone. Read-outs that look alike come from different tables or passages of the source.
Key:
[1] = system: tetrabenazine-induced sedation and depression in mice; test: Antagonism of tetrabenazine-induced depression in mice, orally; assay type: in vivo, female white mice (Carworth CF1 S); settings: oral, 1 hr post drug, 30 minutes after tetrabenazine 32 mg/kg intraperitoneally, female mice; for ED50: Mus musculus, read-out: ED50 for prevention of ptosis
Protocol: Relief from ptosis was recorded when exactly two seconds after placing the mouse facing the observer, lid closure was less than 50% in both eyes.

[2] = system: tetrabenazine-induced sedation and depression in mice; test: as above; assay type: in vivo, female white mice (Carworth CF1 S); settings: oral, 1 hr post drug, 30 minutes after tetrabenazine 32 mg/kg intraperitoneally, female mice; for ED50: Mus musculus, read-out: ED50 for prevention of exploratory loss
[3] = background statement, no test described; cited from earlier work

CC(O)CCN1CCC2C3c4ccccc4C(c4ccccc43)C2C1 (centres unmarked)
ED50 [1]: 4.9 mg/kg
ED50 [2]: 5.6 mg/kg

c1ccc(OCCN2CCC3C4c5ccccc5C(c5ccccc54)C3C2)cc1 (centres unmarked)
ED50 [1]: 10.8 mg/kg
ED50 [2]: 27 mg/kg

CCOC(=O)CCN1CCC2C3c4ccccc4C(c4ccccc43)C2C1 (racemic) [(±)1,2,3,4,4a,5,10,10a-octahydro-5,10-o-benzenobenz[g]isoquinoline-2-propionic acid ethyl ester]
ED50 [1]: 8.1 mg/kg
ED50 [2]: 20 mg/kg

CCCCN1CCC2C3c4ccccc4C(c4ccccc43)C2C1 (racemic) [(±)2-(1-butyl)-1,2,3,4,4a,5,10,10a-Octahydro-5,10-o-benzenobenz[g]isoquinoline Maleate]
ED50 [1]: 11.2 mg/kg
ED50 [2]: 19 mg/kg

c1ccc(CCN2CCC3C4c5ccccc5C(c5ccccc54)C3C2)cc1 (racemic) [R=CH2 CH2 C6 H5, R1=H, R2=H, R3=H, R4=H, (±)1,2,3,4,4a,5,10,10a-octahydro-2-phenethyl-5,10-o-benzenobenz[g]isoquinoline, hydrochloride hemihydrate]
ED50 [1]: 11.8 mg/kg
ED50 [2]: 13.6 mg/kg

CC(=O)CCN1CCC2C3c4ccccc4C(c4ccccc43)C2C1 (racemic) [R=CH2 CH2 COCH3, R1=H, R2=H, R3=H, R4=H, (±)4-(1,2,3,4,4a,5,10,10a-Octahydro-5,10-o-benzenobenz[g]isoquinoline-2-yl)-2-butanone Maleate]
ED50 [1]: 2.1 mg/kg
ED50 [2]: 4.4 mg/kg

O=C(O)CCN1CCC2C3c4ccccc4C(c4ccccc43)C2C1 (racemic) [R=CH2 CH2 COOH, R1=H, R2=H, R3=H, R4=H, (±)1,2,3,4,4a,5,10,10a-Octahydro-5,10-o-benzenobenz[g]isoquinoline-2-propionic Acid Hydrochloride]
ED50 [1]: 15 mg/kg
ED50 [2]: 27 mg/kg

c1ccc(C(CN2CCC3C4c5ccccc5C(c5ccccc54)C3C2)c2ccccc2)cc1 (racemic) [R=CH2 CH(C6 H5)2, R1=H, R2=H, R3=H, R4=H, (±)1,2,3,4,4a,5,10,10a-octahydro-2-(2,2-diphenylethyl)-5,10-o-benzenobenz[g]isoquinoline hydrochloride]
ED50 [1]: 12 mg/kg
ED50 [2]: 47 mg/kg

CN1CCC2C3c4ccccc4C(c4ccccc43)C2C1 (racemic) [R=CH3, R1=H, R2=H, R3=H, R4=H, (±)1,2,3,4,4a,5,10,10a-Octrahydro-2-methyl-5,10-o-benzenobenz[g]isoquinoline Hydrochloride]
ED50 [1]: 1 mg/kg
ED50 [2]: 6 mg/kg

CCOC(=O)N1CCC2C3c4ccccc4C(c4ccccc43)C2C1 (racemic) [R=COOC2 H5, R1=H, R2=H, R3=H, R4=H, (±)1,2,3,4,4a,5,10,10a-Octahydro-5,10-o-benzenobenz[g]isoquinoline-2-carboxylic Acid, Ethyl Ester]
ED50 [1]: 2.1 mg/kg
ED50 [2]: 5.4 mg/kg

c1ccc2c(c1)C1c3ccccc3C2C2CNCCC12 (racemic) [R=H, R1=H, R2=H, R3=H, R4=H, (±)1,2,3,4,4a,5,10,10a-Octahydro-5,10-o-benzenobenz[g]isoquinoline Hydrochloride]
ED50 [1]: 0.41 mg/kg
ED50 [2]: 1.5 mg/kg

CN(C)CCC=C1c2ccccc2CCc2ccccc21 [Amitriptyline, reference compound]
ED50 [1]: 1 mg/kg
ED50 [2]: 1.2 mg/kg

CN(C)CCCN1c2ccccc2CCc2ccccc21 [Imipramine]
side effects [3]: may cause blurred vision, dryness of mouth, constipation, urinary retention, orthostatic hypotension, respiration depression, myocardial infarction and congestive heart failure

(±)1,2,3,4,4a,5,10,10a-octahydro-5-(or: -10)-methyl-5,10-o-benzobenz[g]isoquinoline hydrochloride [R=H, R1=CH3 (H), R2=H(CH3), R3=H, R4=H]
ED50 for prevention of ptosis [1]: 22 mg/kg
ED50 for prevention of exploratory loss [2]: 38 mg/kg

(±)1,2,3,4,4a,5,10,10a-octahydro-7-(or: -8-)methyl-5,10-o-benzenobenz[g]isoquinoline hydrochloride [R=H, R1=H, R2=H, R3=7 or 8-CH3, R4=H]
ED50 for prevention of ptosis [1]: .94 mg/kg
ED50 for prevention of exploratory loss [2]: 4.8 mg/kg

(±)1,2,3,4,4a,-5,10,10a-octahydro-2,5-dimethyl-5,10-o-benzenobenz[g]isoquinoline or (±)1,2,3,4,4a,5,10,10a-octahydro-2,10-dimethyl-5,10-o-benzenobenz[g]isoquinoline [R=CH3, R1=CH3 (H), R2=H(CH3), R3=H, R4=H]
ED50 for prevention of ptosis [1]: 21 mg/kg
ED50 for prevention of exploratory loss [2]: 27 mg/kg

(±)2-(1-adamantylmethyl)-1,2,3,4,4a,5,10,10a-octahydro-5,10-o-benzenobenz[g]isoquinoline, hydrochloride hemihydrate [R=1-adamantyl, R1=H, R2=H, R3=H, R4=H]
ED50 for prevention of ptosis [1]: 24 mg/kg
ED50 for prevention of exploratory loss [2]: 41 mg/kg

(±)6,10-dichloro-1,2,3,4,4a,5,10,10a-octahydro-2-methyl-5,10-o-benzenobenz[g]isoquinoline hydrochloride [R=CH3, R1=H, R2=H, R3=6-Cl, R4=10-Cl]
ED50 for prevention of ptosis [1]: 12.2 mg/kg
ED50 for prevention of exploratory loss [2]: 22 mg/kg

(±)6-(or: -9-)-chloro-1,2,3,4,4a,5,10,10a-octahydro-2-methyl-5,10-o-benzenobenz[g]isoquinoline hydrochloride [R=CH3, R1=H, R2=H, R3=6 or 9-Cl, R4=H]
ED50 for prevention of ptosis [1]: 1.3 mg/kg
ED50 for prevention of exploratory loss [2]: 1.4 mg/kg

(±)6-(or: -9-)chloro-1,2,3,4,4a,10,10a-octahydro-5,10-o-benzenobenz[g]isoquinoline hydrochloride [R=H, R1=H, R2=H, R3=6 or 9-Cl, R4=H]
ED50 for prevention of ptosis [1]: 2.2 mg/kg
ED50 for prevention of exploratory loss [2]: 2.5 mg/kg

(±)7-(or: -8-)-chloro-1,2,3,4,4a,5,10,10a-octahydro-5,10-o-benzenobenz[g]isoquinoline hydrochloride [R=H, R1=H, R2=H, R3=7 or 8-Cl, R4=H]
ED50 for prevention of ptosis [1]: 1.4 mg/kg
ED50 for prevention of exploratory loss [2]: 1.7 mg/kg

(±)7-(or: -8-)-fluoro-1,2,3,4,4a,5,10,10a-octahydro-5,10-o-benzenobenz[g]isoquinoline hydrochloride [R=H, R1=H, R2=H, R3=7 or 8-F, R4=H]
ED50 for prevention of ptosis [1]: .58 mg/kg
ED50 for prevention of exploratory loss [2]: 1.7 mg/kg

(±)7-(or: -8-)chloro-1,2,3,4,4a,5,10,10a-octahydro-2-methyl-5,10-o-benzenobenz[g]isoquinoline hydrochloride hemihydrate [R=CH3, R1=H, R2=H, R3=7 or 8-Cl, R4=H]
ED50 for prevention of ptosis [1]: 3.4 mg/kg
ED50 for prevention of exploratory loss [2]: 4.5 mg/kg

(±)7-(or: -8-)fluoro-1,2,3,4,4a,5,10,10a-octahydro-2-methyl-5,10-o-benzenobenz[g]isoquinoline hydrochloride [R=CH3, R1=H, R2=H, R3=7 or 8-F, R4=H]
ED50 for prevention of ptosis [1]: 2.0 mg/kg
ED50 for prevention of exploratory loss [2]: 2.7 mg/kg

— patent publication US4351836A, “1,2,3,4,4a,5,10,10a-Octahydro-5,10-ortho-benzenobenz[g]isoquinolines and antidepressant use thereof” (E. I. Du Pont de Nemours and Company, priority 1980, dated 1982)
